Experimental data published in the OligoGym collection.
HELM strings list units from the 5' end as sugar, base in round brackets, then linkage (d deoxyribose, r ribose, m 2'-O-methyl, p phosphodiester). Strings are as the collection lists them; they lack the last nucleoside at the 3' end of the tested compound. [moe] = 2'-O-(2-methoxyethyl) (MOE); [sp] = phosphorothioate linkage; [m5C] = 5-methylcytosine

Each substance was assayed against ATXN2 (assay: mouse, dose not given). Conditions: ASO.
Substance “RNA1{[moe]([m5C])[sp].[moe](G)p.[moe](G)p.[moe](A)p.[moe](T)p.d(T)[sp].d(G)[sp].d(T)[sp].d(T)[sp].d(T)[sp].d(T)[sp].d([m5C])[sp].d(T)[sp].d(T)[sp].d([m5C])[sp].[moe](A)p.[moe](T)p.[moe](T)[sp].[moe](A)}$$$$ (last 3' nucleoside missing)” has a 3 h FOB score of 1 score 0-7.
In the case of “RNA1{[moe]([m5C])[sp].[moe](G)p.[moe](T)p.[moe](A)p.[moe](T)[sp].d(G)[sp].d(T)[sp].d(T)[sp].d(T)[sp].d(G)[sp].d(T)[sp].d([m5C])[sp].d(T)[sp].[moe](G)p.[moe](T)p.[moe]([m5C])[sp].[moe](T)}$$$$ (last 3' nucleoside missing)”, the 3 h FOB score is reported as 6 score 0-7.
In the case of “RNA1{[moe]([m5C])[sp].[moe](G)p.[moe](T)p.[moe](A)p.[moe](T)p.[moe](G)p.d(T)[sp].d(T)[sp].d(T)[sp].d(G)[sp].d(T)[sp].d([m5C])[sp].d(T)[sp].d(G)[sp].d(T)[sp].d([m5C])[sp].[moe](T)p.[moe](T)[sp].[moe](A)}$$$$ (last 3' nucleoside missing)”, the 3 h FOB score is reported as 6.75 score 0-7.
Work on “RNA1{[moe]([m5C])[sp].[moe](G)p.[moe](T)p.[moe](A)p.[moe](T)p.d(G)[sp].d(T)[sp].d(T)[sp].d(T)[sp].d(G)[sp].d(T)[sp].d([m5C])[sp].d(T)[sp].d(G)[sp].d(T)[sp].[moe]([m5C])p.[moe](T)p.[moe](T)[sp].[moe](A)}$$$$ (last 3' nucleoside missing)” yielded a 3 h FOB score of 6.25 score 0-7.
In the case of “RNA1{[moe]([m5C])[sp].[moe](G)p.[moe](T)p.[moe](A)p.d(T)[sp].d(G)[sp].d(T)[sp].d(T)[sp].d(T)[sp].d(G)[sp].d(T)[sp].d([m5C])[sp].d(T)[sp].d(G)[sp].[moe](T)p.[moe]([m5C])p.[moe](T)p.[moe](T)[sp].[moe](A)}$$$$ (last 3' nucleoside missing)”, the 3 h FOB score is reported as 4 score 0-7.
With “RNA1{[moe]([m5C])[sp].[moe](G)p.[moe](T)p.[moe](G)p.[moe](G)p.d(T)[sp].d(G)[sp].d(G)[sp].d(T)[sp].d(G)[sp].d(T)[sp].d(G)[sp].d([m5C])[sp].d(G)[sp].d([m5C])[sp].[moe](A)p.[moe](T)p.[moe](G)[sp].[moe](T)}$$$$ (last 3' nucleoside missing)” the 3 h FOB score was 6.25 score 0-7.
“RNA1{[moe]([m5C])[sp].[moe](G)p.[moe](T)p.[moe](T)p.[moe](T)p.d([m5C])[sp].d([m5C])[sp].d(T)[sp].d(T)[sp].d([m5C])[sp].d(T)[sp].d([m5C])[sp].d([m5C])[sp].d([m5C])[sp].d(T)[sp].[moe](T)p.[moe](T)p.[moe](G)[sp].[moe](A)}$$$$ (last 3' nucleoside missing)” was tested, and the 3 h FOB score was 0 score 0-7.
Substance “RNA1{[moe]([m5C])[sp].[moe](G)p.[moe]([m5C])p.[moe](G)p.[moe](G)p.d(T)[sp].d(G)[sp].d(A)[sp].d(A)[sp].d(T)[sp].d(T)[sp].d([m5C])[sp].d(T)[sp].d(G)[sp].d(T)[sp].[moe]([m5C])p.[moe](T)p.[moe]([m5C])[sp].[moe]([m5C])}$$$$ (last 3' nucleoside missing)” has a 3 h FOB score of 1 score 0-7.
“RNA1{[moe]([m5C])[sp].[moe](T)[sp].[moe](G)[sp].[moe](G)[sp].[moe](T)[sp].d(A)[sp].d([m5C])[sp].d(A)[sp].d(G)[sp].d(T)[sp].d(T)[sp].d(G)[sp].d([m5C])[sp].d(T)[sp].d(G)[sp].[moe]([m5C])[sp].[moe](T)[sp].[moe](G)[sp].[moe]([m5C])}$$$$ (last 3' nucleoside missing)” gave a 3 h FOB score of 7 score 0-7.
“RNA1{[moe]([m5C])[sp].[moe](T)[sp].[moe]([m5C])[sp].[moe](T)[sp].[moe]([m5C])[sp].d([m5C])[sp].d(A)[sp].d(T)[sp].d(T)[sp].d(A)[sp].d(T)[sp].d(T)[sp].d(T)[sp].d([m5C])[sp].d(T)[sp].[moe](T)[sp].[moe]([m5C])[sp].[moe](A)[sp].[moe]([m5C])}$$$$ (last 3' nucleoside missing)” showed a 3 h FOB score of 7 score 0-7.
In the case of “RNA1{[moe]([m5C])[sp].[moe](T)p.[moe](A)p.[moe](A)p.[moe]([m5C])[sp].d(T)[sp].d(G)[sp].d(G)[sp].d(T)[sp].d(T)[sp].d(T)[sp].d(G)[sp].d([m5C])[sp].[moe]([m5C])p.[moe]([m5C])p.[moe](T)[sp].[moe](T)}$$$$ (last 3' nucleoside missing)”, the 3 h FOB score is reported as 7 score 0-7.
“RNA1{[moe]([m5C])[sp].[moe](T)p.[moe](A)p.[moe](G)p.[moe](G)p.d(T)[sp].d(G)[sp].d(A)[sp].d(T)[sp].d(G)[sp].d(T)[sp].d(T)[sp].d(T)[sp].d([m5C])[sp].d(A)[sp].[moe](T)p.[moe](T)p.[moe](G)[sp].[moe](G)}$$$$ (last 3' nucleoside missing)” showed a 3 h FOB score of 7 score 0-7.
Substance “RNA1{[moe]([m5C])[sp].[moe](T)p.[moe](A)p.[moe](T)p.[moe](T)[sp].d(T)[sp].d([m5C])[sp].d(T)[sp].d(T)[sp].d(T)[sp].d(G)[sp].d(T)[sp].d([m5C])[sp].[moe]([m5C])p.[moe](A)p.[moe](G)[sp].[moe](G)}$$$$ (last 3' nucleoside missing)” has a 3 h FOB score of 3.25 score 0-7.
In the case of “RNA1{[moe]([m5C])[sp].[moe](T)p.[moe](A)p.[moe](T)p.[moe]([m5C])[sp].d(A)[sp].d(T)[sp].d([m5C])[sp].d(A)[sp].d(T)[sp].d(T)[sp].d(T)[sp].d(T)[sp].[moe]([m5C])p.[moe]([m5C])p.[moe](A)[sp].[moe](G)}$$$$ (last 3' nucleoside missing)”, the 3 h FOB score is reported as 1 score 0-7.
With “RNA1{[moe]([m5C])[sp].[moe](T)p.[moe](A)p.[moe](T)p.[moe]([m5C])p.d(A)[sp].d(T)[sp].d([m5C])[sp].d(A)[sp].d(T)[sp].d(T)[sp].d(T)[sp].d(T)[sp].d([m5C])[sp].d([m5C])[sp].[moe](A)p.[moe](G)p.[moe](G)[sp].[moe](G)}$$$$ (last 3' nucleoside missing)” the 3 h FOB score was 1 score 0-7.
Substance “RNA1{[moe]([m5C])[sp].[moe](T)p.[moe](G)p.[moe](G)p.[moe](A)[sp].d(T)[sp].d(T)[sp].d([m5C])[sp].d(T)[sp].d(G)[sp].d(T)[sp].d(A)[sp].d([m5C])[sp].[moe](T)p.[moe](T)p.[moe](T)[sp].[moe](T)}$$$$ (last 3' nucleoside missing)” has a 3 h FOB score of 3.75 score 0-7.
“RNA1{[moe]([m5C])[sp].[moe](T)p.[moe](G)p.[moe](G)p.[moe](A)p.[moe](T)p.d(T)[sp].d([m5C])[sp].d(T)[sp].d(G)[sp].d(T)[sp].d(A)[sp].d([m5C])[sp].d(T)[sp].d(T)[sp].d(T)[sp].[moe](T)p.[moe]([m5C])[sp].[moe](T)}$$$$ (last 3' nucleoside missing)” gave a 3 h FOB score of 1 score 0-7.
“RNA1{[moe]([m5C])[sp].[moe](T)p.[moe](G)p.[moe](G)p.[moe](A)p.d(T)[sp].d(T)[sp].d([m5C])[sp].d(T)[sp].d(G)[sp].d(T)[sp].d(A)[sp].d([m5C])[sp].d(T)[sp].d(T)[sp].[moe](T)p.[moe](T)p.[moe]([m5C])[sp].[moe](T)}$$$$ (last 3' nucleoside missing)” was tested, and the 3 h FOB score was 5.25 score 0-7.
For “RNA1{[moe]([m5C])[sp].[moe](T)p.[moe](G)p.[moe](G)p.[moe](T)p.d(T)[sp].d([m5C])[sp].d([m5C])[sp].d(T)[sp].d(T)[sp].d(A)[sp].d([m5C])[sp].d(A)[sp].d(A)[sp].d(T)[sp].[moe](T)p.[moe](A)p.[moe](T)[sp].[moe]([m5C])}$$$$ (last 3' nucleoside missing)”, the 3 h FOB score was 1 score 0-7.
In the case of “RNA1{[moe]([m5C])[sp].[moe](T)p.[moe](G)p.[moe](G)p.d(A)[sp].d(T)[sp].d(T)[sp].d([m5C])[sp].d(T)[sp].d(G)[sp].d(T)[sp].d(A)[sp].d([m5C])[sp].d(T)[sp].[moe](T)p.[moe](T)p.[moe](T)p.[moe]([m5C])[sp].[moe](T)}$$$$ (last 3' nucleoside missing)”, the 3 h FOB score is reported as 2 score 0-7.
“RNA1{[moe]([m5C])[sp].[moe](T)p.[moe](G)p.[moe](T)p.[moe](A)[sp].d([m5C])[sp].d(T)[sp].d(T)[sp].d(T)[sp].d(T)[sp].d([m5C])[sp].d(T)[sp].d([m5C])[sp].[moe](A)p.[moe](T)p.[moe](G)[sp].[moe](T)}$$$$ (last 3' nucleoside missing)” was tested, and the 3 h FOB score was 3.5 score 0-7.
“RNA1{[moe]([m5C])[sp].[moe](T)p.[moe](G)p.[moe](T)p.[moe](A)p.d([m5C])[sp].d(T)[sp].d(T)[sp].d(T)[sp].d(T)[sp].d([m5C])[sp].d(T)[sp].d([m5C])[sp].d(A)[sp].d(T)[sp].[moe](G)p.[moe](T)p.[moe](G)[sp].[moe]([m5C])}$$$$ (last 3' nucleoside missing)” gave a 3 h FOB score of 1.25 score 0-7.
Substance “RNA1{[moe]([m5C])[sp].[moe](T)p.[moe](G)p.[moe](T)p.[moe](G)p.d(A)[sp].d(G)[sp].d(T)[sp].d(T)[sp].d([m5C])[sp].d(A)[sp].d([m5C])[sp].d([m5C])[sp].d(T)[sp].d(G)[sp].[moe]([m5C])p.[moe](A)p.[moe](T)[sp].[moe]([m5C])}$$$$ (last 3' nucleoside missing)” has a 3 h FOB score of 1 score 0-7.
In the case of “RNA1{[moe]([m5C])[sp].[moe](T)p.[moe](G)p.[moe](T)p.[moe](G)p.d(T)[sp].d(A)[sp].d(T)[sp].d(T)[sp].d(T)[sp].d(T)[sp].d(T)[sp].d([m5C])[sp].d(T)[sp].d(T)[sp].[moe]([m5C])p.[moe]([m5C])p.[moe](T)[sp].[moe]([m5C])}$$$$ (last 3' nucleoside missing)”, the 3 h FOB score is reported as 0 score 0-7.
“RNA1{[moe]([m5C])[sp].[moe](T)p.[moe](G)p.[moe]([m5C])p.[moe](T)[sp].d(A)[sp].d(A)[sp].d([m5C])[sp].d(T)[sp].d(G)[sp].d(G)[sp].d(T)[sp].d(T)[sp].[moe](T)p.[moe](G)p.[moe]([m5C])[sp].[moe]([m5C])}$$$$ (last 3' nucleoside missing)” was tested, and the 3 h FOB score was 4 score 0-7.
In the case of “RNA1{[moe]([m5C])[sp].[moe](T)p.[moe](G)p.[moe]([m5C])p.[moe](T)p.[moe](A)p.d(A)[sp].d([m5C])[sp].d(T)[sp].d(G)[sp].d(G)[sp].d(T)[sp].d(T)[sp].d(T)[sp].d(G)[sp].d([m5C])[sp].[moe]([m5C])p.[moe]([m5C])[sp].[moe](T)}$$$$ (last 3' nucleoside missing)”, the 3 h FOB score is reported as 5.5 score 0-7.
